Results as given in patent US20210251232A1, “USE OF FUNGICIDAL ACTIVE COMPOUND I DERIVATIVE AND MIXTURES THEREOF IN SEED APPLICATION AND TREATMENT METHODS” (BASF SE, priority 2018, published 2021).
Read-outs that look alike come from different tables or passages of the source.

How the values were obtained:
Assay type in all cases: cell-based
Conditions in all cases: alone, 7 days after inoculation
Leptosphaeria nodorum = assay: Microtiter test, activity against wheat leaf spots caused by Leptosphaeria nodorum
Phytophthora infestans = system: Phytophthora infestans
Botrytis cinerea = assay: Microtiterplate test, activity against the grey mold Botrytis cinerea
[1] = system: Qol resistant iso-late of Pyrenophora teres; assay: Microtiter test, activity against Pyrenophora teres
Pyricularia oryzae = system: Pyricularia oryzae

`CC(O)(Cn1cncn1)c1ccc(Oc2ccc(Cl)cc2)cc1C(F)(F)F` (stereo not shown) [Mefentrifluconazol] showed an Observed efficacy (Leptosphaeria nodorum; 0.016 ppm) of 39, an Observed efficacy (Phytophthora infestans; 0.016 ppm) of 0 and an Observed efficacy (Botrytis cinerea; 0.016 ppm) of 0. The Observed efficacy ([1]; 0.25 ppm) was 31.
With `COC(=O)NC(=S)Nc1ccccc1NC(=S)NC(=O)OC` [Thiophanate methyl] the Observed efficacy (Pyricularia oryzae; 4 ppm) was 0.
Work on Spinetoram yielded an Observed efficacy (Pyricularia oryzae; 63 ppm) of 0.
Work on `N#Cc1c[nH]cc1-c1cccc2c1OC(F)(F)O2` [Fludioxonil] yielded an Observed efficacy (Pyricularia oryzae; 0.016 ppm) of 9, an Observed efficacy (Pyricularia oryzae; 0.063 ppm) of 17 and an Observed efficacy (Pyricularia oryzae; 0.25 ppm) of 26.
With `COC(=O)N(OC)c1ccccc1COc1ccn(-c2ccc(Cl)cc2)n1` [Pyraclostrobin] the Observed efficacy (Leptosphaeria nodorum; 0.016 ppm) was 42.
Work on `CC(C)C1CCC(Cc2ccc(Cl)cc2)C1(O)Cn1cncn1` (stereo not shown) [Ipconazol] yielded an Observed efficacy (Pyricularia oryzae; 16 ppm) of 0.
With `Cc1cc(C(F)(F)F)nn1CC(=O)N1CCC(c2nc(C3=NOC(c4c(F)cccc4F)C3)cs2)CC1` (stereo not shown) [Oxathiapirolin] the Observed efficacy (Pyricularia oryzae; 16 ppm) was 0.
For `CC(c1ccc(C(F)(F)F)nc1)S(C)(=O)=NC#N` (stereo not shown) [Sulfoxaflor], the Observed efficacy (Pyricularia oryzae; 63 ppm) was 0.
Compound `N#Cc1ccc(Oc2ccc(C(F)(F)C(O)(Cn3ncnc3S)c3ccc(F)cc3F)nc2)cc1` (stereo not shown) [Compound I, 4-[[6-[2-(2,4-difluorophenyl)-1,1-difluoro-2-hydroxy-3-(5-sulfanyl-1,2,4-triazol-1-yl)propyl]-3-pyridyl]oxy]benzonitrile] has an Observed efficacy (Pyricularia oryzae; 1 ppm, 405 nm) of 0, an Observed efficacy (Leptosphaeria nodorum; 0.25 ppm) of 0 and an Observed efficacy (Leptosphaeria nodorum; 1 ppm) of 20. The Observed efficacy (Leptosphaeria nodorum; 4 ppm, 405 nm) was 37, the Observed efficacy (Phytophthora infestans; 4 ppm, 405 nm, 0 = growth as untreated control, 100 = no growth) was 24 and the Observed efficacy (Botrytis cinerea; 4 ppm, 405 nm) was 24. It also gave an Observed efficacy ([1]; 4 ppm, 405 nm) of 0.
`CN/C(=N\[N+](=O)[O-])NCc1cnc(Cl)s1` [Clothianidin] gave an Observed efficacy (Pyricularia oryzae; 63 ppm) of 0.
In the case of `O=[N+]([O-])NC1=NCCN1Cc1ccc(Cl)nc1` [Imidacloprid], the Observed efficacy (Pyricularia oryzae; 63 ppm) is reported as 0.
